Source: patent US20110224208A1, “NOVEL INHIBITORS OF FLAVIVIRUS REPLICATION” (KATHOLIEKE UNIVERSITEIT LEUVEN, K.U. LEUVEN R&D, priority 2008, published 2011)
Values after ≈ are worked out from the molar mass of the structure shown.

Tests used:
[1] = Proliferation of exponentially growing Huh-5-2 cells (MTS method); conditions: human, CC50, concentration required to inhibit the proliferation of exponentially growing Huh-5-2 cells by 50%; Table 2
Experimental: Cells were seeded at a density of 7000 cells per well in 96 well View Plate™ (Packard) in medium containing the same components as described above, except for G418. Cells were allowed to adhere and proliferate for 24 hr. At that time, culture medium was removed and serial dilutions of the test compounds were added in culture medium lacking G418. Interferon alfa 2a (500 IU) was included as a positive control. Plates were further incubated at 37° C. and 5% CO2 for 72 hours. Replication of the HCV replicon in Huh-5 cells results in luciferase activity in the cells. Luciferase activity is measured by adding 50 μl of 1×Glo-lysis buffer (Promega) for 15 minutes followed by 50 ul of the Steady-Glo Luciferase assay reagent (Promega). Luciferase activity is measured with a luminometer and the signal in each individual well is expressed as a percentage of the untreated cultures. […] Instead the density of the culture is measured by means of the MTS method (Promega).

[2] = system: HCV replicon I389luc-ubi-neo/NS3-3'/5.1; experiment: Anti-HCV replicon assay (luciferase activity) in Huh-5-2 cells; format: cell-based, Hepatitis C virus; conditions: Hepatitis C virus, Huh-5-2, 72 h, concentration required to inhibit luciferase activity in the replicon system by 50%
Method in brief: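 Huh-5-2 cells carrying the luciferase HCV replicon, seeded 24 h, then exposed to serial compound dilutions without G418 for 72 h at 37° C, 5% CO2. Replication read as luciferase luminescence, expressed as percentage of untreated cultures; culture density measured in parallel by MTS.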

| SMILES | CC50 at 72 h [1] | IC50 [2] |
| --- | --- | --- |
| COCCN1C(=O)c2ccccc2C(C(=O)Nc2cccc(OC)c2)C1c1cc(C)nn1C (stereo not shown) [C100, 3-(1,3-dimethyl-1H-pyrazol-5-yl)-2-(2-methoxyethyl)-N-(3-methoxyphenyl)-1-oxo-1,2,3,4-tetrahydroisoquinoline-4-carboxamide] | 86.7 µg/mL (≈ 193 µM) | 56.8 µg/mL (≈ 127 µM) |
| COCCN1C(=O)c2ccccc2C(C(=O)Nc2cccc(OC)c2)C1c1ccc(F)cc1 (stereo not shown) [C9, 3-(4-Fluorophenyl)-2-(2-methoxyethyl)-N-(3-methoxyphenyl)-1-oxo-1,2,3,4-tetrahydroisoquinoline-4-carboxamide] | 50.7 µg/mL (≈ 113 µM) | 13.4 µg/mL (≈ 29.8 µM) |
| COCCN1C(=O)c2ccccc2C(C(=O)Nc2cc(C(=O)OC)n(C)c2)C1c1cccs1 (stereo not shown) [C209, methyl 4-(2-(2-methoxyethyl)-1-oxo-3-(thiophen-2-yl)-1,2,3,4-tetrahydroisoquinoline-4-carboxamido)-1-methyl-1H-pyrrole-2-carboxylate] | 57.8 µg/mL (≈ 124 µM) | 0.11 µg/mL (≈ 0.235 µM) |
| COCCN1C(=O)c2ccccc2C(C(=O)Nc2cccc(NC(C)=O)c2)C1c1cccs1 (stereo not shown) [C108, N-(3-acetamidophenyl)-2-(2-methoxyethyl)-1-oxo-3-(thiophen-2-yl)-1,2,3,4-tetrahydroisoquinoline-4-carboxamide] | 77.3 µg/mL (≈ 167 µM) | 3.71 µg/mL (≈ 8 µM) |
| COCCN1C(=O)c2ccccc2C(C(=O)Nc2cccc(N3CCCC3)c2)C1c1cccs1 (stereo not shown) [C122, 2-(2-methoxyethyl)-1-oxo-N-(3-(pyrrolidin-1-yl)phenyl)-3-(thiophen-2-yl)-1,2,3,4-tetrahydroisoquinoline-4-carboxamide] | 81.3 µg/mL (≈ 171 µM) | 0.37 µg/mL (≈ 0.778 µM) |
| COCCN1C(=O)c2ccccc2C(C(=O)Nc2ccc(-c3nnc(C)o3)cc2)C1c1cccs1 (stereo not shown) [C205, 2-(2-methoxyethyl)-N-(4-(5-methyl-1,3,4-oxadiazol-2-yl)phenyl)-1-oxo-3-(thiophen-2-yl)-1,2,3,4-tetrahydroisoquinoline-4-carboxamide] | 38.8 µg/mL (≈ 79.5 µM) | 0.034 µg/mL (≈ 0.0696 µM) |
| CNC(=O)c1ccc(NC(=O)C2c3ccccc3C(=O)N(CCOC)C2c2cccs2)cc1 (stereo not shown) [C141, 2-(2-methoxyethyl)-N-(4-(methylcarbamoyl)phenyl)-1-oxo-3-(thiophen-2-yl)-1,2,3,4-tetrahydroisoquinoline-4-carboxamide] | 73.8 µg/mL (≈ 159 µM) | 0.63 µg/mL (≈ 1.36 µM) |
| COCCN1C(=O)c2ccccc2C(C(=O)Nc2cccc(Cc3ccccc3)c2)C1c1cccs1 (stereo not shown) [C89, N-(3-benzylphenyl)-2-(2-methoxyethyl)-1-oxo-3-(thiophen-2-yl)-1,2,3,4-tetrahydroisoquinoline-4-carboxamide] | 0.62 µg/mL (≈ 1.25 µM) | 0.11 µg/mL (≈ 0.221 µM) |
| COCCN1C(=O)c2ccccc2C(C(=O)Nc2ccc(F)c(F)c2)C1c1cccs1 (stereo not shown) [C88, N-(3,4-difluorophenyl)-2-(2-methoxyethyl)-1-oxo-3-(thiophen-2-yl)-1,2,3,4-tetrahydroisoquinoline-4-carboxamide] | 60 µg/mL (≈ 136 µM) | 2.7 µg/mL (≈ 6.1 µM) |
| COCCN1C(=O)c2ccccc2C(C(=O)Nc2ccc(-c3ccn(C)n3)cc2)C1c1cccs1 (stereo not shown) [C203, 2-(2-methoxyethyl)-N-(4-(1-methyl-1H-pyrazol-3-yl)phenyl)-1-oxo-3-(thiophen-2-yl)-1,2,3,4-tetrahydroisoquinoline-4-carboxamide] | 9.4 µg/mL (≈ 19.3 µM) | 0.019 µg/mL (≈ 0.039 µM) |
| COCCN1C(=O)c2ccccc2C(C(=O)Nc2cccc(OC)c2)C1c1cccnc1 (stereo not shown) [C53, 2-(2-Methoxyethyl)-N-(3-methoxyphenyl)-1-oxo-3-(pyridin-3-yl)-1,2,3,4-tetrahydroisoquinoline-4-carboxamide] | 80.8 µg/mL (≈ 187 µM) | 52.9 µg/mL (≈ 123 µM) |
| COCCN1C(=O)c2ccccc2C(C(=O)Nc2ccc(Cn3cncn3)cc2)C1c1cccs1 (stereo not shown) [C217, N-(4-((1H-1,2,4-triazol-1-yl)methyl)phenyl)-2-(2-methoxyethyl)-1-oxo-3-(thiophen-2-yl)-1,2,3,4-tetrahydroisoquinoline-4-carboxamide] | 83.7 µg/mL (≈ 172 µM) | 0.76 µg/mL (≈ 1.56 µM) |
| COCCN1C(=O)c2ccccc2C(C(=O)Nc2onc(C)c2C#N)C1c1cccs1 (stereo not shown) [C155, N-(4-cyano-3-methylisoxazol-5-yl)-2-(2-methoxyethyl)-1-oxo-3-(thiophen-2-yl)-1,2,3,4-tetrahydroisoquinoline-4-carboxamide] | 76.4 µg/mL (≈ 175 µM) | 5.65 µg/mL (≈ 12.9 µM) |
| COCCN1C(=O)c2ccccc2C(C(=O)Nc2ccc(OC3CCOCC3)cc2)C1c1cccs1 (stereo not shown) [C218, 2-(2-methoxyethyl)-1-oxo-N-(4-(tetrahydro-2H-pyran-4-yloxy)phenyl)-3-(thiophen-2-yl)-1,2,3,4-tetrahydroisoquinoline-4-carboxamide] | 83.8 µg/mL (≈ 165 µM) | 0.1 µg/mL (≈ 0.197 µM) |
| CCN1C(=O)c2ccccc2C(C(=O)Nc2cccc(OC)c2)C1c1cccs1 (stereo not shown) [C5, 2-Ethyl-N-(3-methoxyphenyl)-1-oxo-3-(thiophen-2-yl)-1,2,3,4-tetrahydroisoquinoline-4-carboxamide] | 33.4 µg/mL (≈ 82.2 µM) | 3.6 µg/mL (≈ 8.86 µM) |
| COCCN1C(=O)c2ccccc2C(C(=O)Nc2cnccn2)C1c1cccs1 (stereo not shown) [C163, 2-(2-methoxyethyl)-1-oxo-N-(pyrazin-2-yl)-3-(thiophen-2-yl)-1,2,3,4-tetrahydroisoquinoline-4-carboxamide] | 81 µg/mL (≈ 198 µM) | 5.23 µg/mL (≈ 12.8 µM) |
| COCCN1C(=O)c2cccc(C)c2C(C(=O)Nc2cccc(OC)c2)C1c1cccs1 (stereo not shown) [C39, 2-(2-Methoxyethyl)-N-(3-methoxyphenyl)-5-methyl-1-oxo-3-(thiophen-2-yl)-1,2,3,4-tetrahydroisoquinoline-4-carboxamide] | 80 µg/mL (≈ 178 µM) | 1.3 µg/mL (≈ 2.89 µM) |
| COCCN1C(=O)c2ccccc2C(C(=O)Nc2ccc(C)c(NS(C)(=O)=O)c2)C1c1cccs1 (stereo not shown) [C213, 2-(2-methoxyethyl)-N-(4-methyl-3-(methylsulfonamido)phenyl)-1-oxo-3-(thiophen-2-yl)-1,2,3,4-tetrahydroisoquinoline-4-carboxamide] | > 100 µg/mL | 0.036 µg/mL (≈ 0.0701 µM) |
| COCCN1C(=O)c2ccccc2C(C(=O)Nc2ccc(C#N)c(C(F)(F)F)c2)C1c1cccs1 (stereo not shown) [C221, N-(4-cyano-3-(trifluoromethyl)phenyl)-2-(2-methoxyethyl)-1-oxo-3-(thiophen-2-yl)-1,2,3,4-tetrahydroisoquinoline-4-carboxamide] | 3.52 µg/mL (≈ 7.05 µM) | 0.36 µg/mL (≈ 0.721 µM) |
| COCCN1C(=O)c2ccccc2C(C(=O)Nc2cccc(OC)c2)C1C#Cc1ccccc1 (stereo not shown) [C119, 2-(2-methoxyethyl)-N-(3-methoxyphenyl)-1-oxo-3-(phenylethynyl)-1,2,3,4-tetrahydroisoquinoline-4-carboxamide] | 94 µg/mL (≈ 207 µM) | 4.63 µg/mL (≈ 10.2 µM) |
| COCCN1C(=O)c2ccccc2C(C(=O)Nc2ccc3c(c2)CC(=O)N3C)C1c1cccs1 (stereo not shown) [C206, 2-(2-methoxyethyl)-N-(1-methyl-2-oxoindolin-5-yl)-1-oxo-3-(thiophen-2-yl)-1,2,3,4-tetrahydroisoquinoline-4-carboxamide] | 52.3 µg/mL (≈ 110 µM) | 3.72 µg/mL (≈ 7.82 µM) |
| COCCN1C(=O)c2ccccc2C(C(=O)Nc2nc(C(C)(C)C)cs2)C1c1cccs1 (stereo not shown) [C177, N-(4-tert-butylthiazol-2-yl)-2-(2-methoxyethyl)-1-oxo-3-(thiophen-2-yl)-1,2,3,4-tetrahydroisoquinoline-4-carboxamide] | 3.16 µg/mL (≈ 6.73 µM) | 0.5 µg/mL (≈ 1.06 µM) |
| COCCN1C(=O)c2ccccc2C(C(=O)Nc2cccc(-n3cccn3)c2)C1c1cccs1 (stereo not shown) [C172, N-(3-(1H-pyrazol-1-yl)phenyl)-2-(2-methoxyethyl)-1-oxo-3-(thiophen-2-yl)-1,2,3,4-tetrahydroisoquinoline-4-carboxamide] | 14.5 µg/mL (≈ 30.6 µM) | 0.09 µg/mL (≈ 0.19 µM) |
| COCCN1C(=O)c2ccccc2C(C(=O)Nc2cc(OC)cc(OC)c2)C1c1cccs1 (stereo not shown) [C130, N-(3,5-dimethoxyphenyl)-2-(2-methoxyethyl)-1-oxo-3-(thiophen-2-yl)-1,2,3,4-tetrahydroisoquinoline-4-carboxamide] | 91.8 µg/mL (≈ 197 µM) | 0.8 µg/mL (≈ 1.71 µM) |
| COCCN1C(=O)c2ccccc2C(C(=O)Nc2cccc(CO)c2)C1c1cccs1 (stereo not shown) [C166, N-(3-(hydroxymethyl)phenyl)-2-(2-methoxyethyl)-1-oxo-3-(thiophen-2-yl)-1,2,3,4-tetrahydroisoquinoline-4-carboxamide] | 64.3 µg/mL (≈ 147 µM) | 0.38 µg/mL (≈ 0.87 µM) |
| COCCN1C(=O)c2ccccc2C(C(=O)Nc2cccc(OC)c2)C1C1CCCC1 (stereo not shown) [C118, 3-cyclopentyl-2-(2-methoxyethyl)-N-(3-methoxyphenyl)-1-oxo-1,2,3,4-tetrahydroisoquinoline-4-carboxamide] | 98.2 µg/mL (≈ 233 µM) | 8.32 µg/mL (≈ 19.7 µM) |
| COCCN1C(=O)c2ccccc2C(C(=O)Nc2cccc(Cn3ccnc3)c2)C1c1cccs1 (stereo not shown) [C212, N-(3-((1H-imidazol-1-yl)methyl)phenyl)-2-(2-methoxyethyl)-1-oxo-3-(thiophen-2-yl)-1,2,3,4-tetrahydroisoquinoline-4-carboxamide] | 52.6 µg/mL (≈ 108 µM) | 0.16 µg/mL (≈ 0.329 µM) |
| COCCN1C(=O)c2ccccc2C(C(=O)Nc2cccc(OC)c2)C1c1nccs1 (stereo not shown) [C102, 2-(2-methoxyethyl)-N-(3-methoxyphenyl)-1-oxo-3-(thiazol-2-yl)-1,2,3,4-tetrahydroisoquinoline-4-carboxamide] | 72.8 µg/mL (≈ 166 µM) | 26.8 µg/mL (≈ 61.3 µM) |
| COCCN1C(=O)c2ccccc2C(C(=O)Nc2cccc(OC)c2)C1c1ccsc1 (stereo not shown) [C11, 2-(2-Methoxyethyl)-N-(3-methoxyphenyl)-1-oxo-3-(thiophen-3-yl)-1,2,3,4-tetrahydroisoquinoline-4-carboxamide] | 37.9 µg/mL (≈ 86.8 µM) | 1.2 µg/mL (≈ 2.75 µM) |
